Where a chain is given by its changes, count along the chain named. Several values for one entry are separate records, joined by “and”; a condition that tells them apart may be missing. Equal values may be shown once.
How the values were obtained:
[1] = Hemodynamic measurements after MPH administration in normal volunteers; assay type: in vivo, human; details: after 0.3 mg/kg MPH
Excerpt: The inventor considered the set of measures for each endpoint to be a multivariate vector, and assessed the Mahalanobis distance for subject's measurements. The Mahalanobis distance, a measure of distance from a central multivariate mean relative to the variance of the endpoints, is useful for identifying outliers via referral to the F distribution. This analysis assumes no explicit model of time effects on the vital signs, but recognizes the potential correlation between the repeated measures over time on each participant, and tests for simultaneous differences from the mean over the set of time points while controlling the Type I error rate. For each of the four endpoint vectors, the inventor tested the a priori hypothesis that the slow metabolizer's measurements were outliers by comparison to Wilks's critical values (α=0.0125, critical value: 13.8).^13 Because only testing outlier status for this single participant was tested, no Bonferroni corrections were made within participants; however, each test was performed at the Bonferroni-corrected α=0.0125 level to adjust for the four endpoints being tested. There were little differences in plasma MPH concentrations between the slow metabolizer and their study peers during the 0-1.5 h time frame (FIG. 6), which is likely due to a delay in tablet disintegration, dissolution and absorption. After this initial period MPH is subject to first-pass metabolism and hCES1 mediated stereoselective hydrolysis and the two concentration vs. time curves rapidly diverge from one another (FIGS. 2-3). Therefore, based on this finding and a visual examination of the data it was decided that a second analysis which excluded measurements taken during the 0-1.5 hr time points would be more appropriate.

[2] = Spontaneous hydrolysis in reaction buffer; assay type: physicochemical; details: PBS containing 10 mM HEPES, pH 7.4
Method: Thus, following the enzymatic assay, the values determined for spontaneous PNP and RA hydrolysis were subtracted from the total PNP and RA production. […] All collected data were fit to the Michaelis-Menten equation, and kinetic parameters were calculated using nonlinear regression analysis with Graphpad Prism software (Graphpad Software Inc., San Diego, Calif.)

[3] = molecular target: T1, p.Asp260fs CES1 (Homo sapiens, UniProt P23141); test: MPH hydrolysis to ritalinic acid by S9 of cells expressing p.Asp260fs CES1 (HPLC); assay type: biochemical; details: S9 500 μg/ml, even at very high S9 concentration (2 mg/ml); 37° C., 2 h
T1 construct: a frameshift mutation that alters residues 260-299 and causes early truncation at a premature stop codon; expressed in transfected cells
T1 sequence (P23141 with tags, fused parts or gaps): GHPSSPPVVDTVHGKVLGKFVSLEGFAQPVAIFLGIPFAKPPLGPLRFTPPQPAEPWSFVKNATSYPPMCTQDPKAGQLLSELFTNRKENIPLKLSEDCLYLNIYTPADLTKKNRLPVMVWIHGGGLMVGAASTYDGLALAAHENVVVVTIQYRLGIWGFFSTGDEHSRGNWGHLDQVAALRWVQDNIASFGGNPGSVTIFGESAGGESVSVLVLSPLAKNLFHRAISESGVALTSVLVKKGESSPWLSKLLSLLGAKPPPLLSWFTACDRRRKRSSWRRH
Excerpt: (§1) The desired plasmid was designed such that the recombinant CES1 would be expressed in mammalian cells with a V5-His tag to facilitate detection and purification. Additionally, another plasmid was generated by inserting a stop codon after CES1A1 gene to yield the constructs expressing CES1 without V5-His tag. […] Thus, only untagged CES1 and its associated mutants were used in the enzymatic hydrolysis study. Two constructs of CES1 mutations, p.Gly143Glu and p.Asp260fs, were generated using a site-directed mutagenesis assay. All constructs were subjected to DNA sequencing analysis to confirm that the desired plasmids were obtained. The identified CES1A1 plasmids (WT, p.Gly143Glu, and p.Asp260fs) were co-transfected with pOG44 plasmid at a ratio of 1:10 into Flp-In™-293 cells using […] (Invitrogen, Carlsbad, Calif.). Additionally, the self-ligated pcDNA5/FRT/V5-His-TOPO® vector was included as a vector control. Twenty-four hours after transfection, cells were washed with PBS and fresh complete medium (Dulbecco's modified Eagle's medium containing 10% fetal bovine serum) was added. […]
(§2) After attaining approximately 95% confluence, cells were rinsed and harvested in PBS containing 10 mM HEPES (pH 7.4). […] The protein concentration was determined using a Pierce BCA assay kit (Rockford, Ill.).
(§3) For the study of MPH hydrolysis, the reaction was conducted in 1.5 mL eppendorf tubes with a final S9 concentration of 0.5 mg/mL at a total volume of 100 μL. […] Concentrations of the primary phase I MPH metabolite produced via hydrolysis, ritalinic acid (RA), was determined utilizing an established HPLC method described below.
(§4) Thus, following the enzymatic assay, the values determined for spontaneous PNP and RA hydrolysis were subtracted from the total PNP and RA production. […] All collected data were fit to the Michaelis-Menten equation, and kinetic parameters were calculated using nonlinear regression analysis with Graphpad Prism software (Graphpad Software Inc., San Diego, Calif.) […]

[4] = molecular target: T2, p.Gly143Glu CES1 (Homo sapiens, UniProt P23141, G143E); test: MPH hydrolysis to ritalinic acid by S9 of cells expressing p.Gly143Glu CES1 (HPLC); assay type: biochemical; details: S9 500 μg/ml, even at very high S9 concentration (2 mg/ml); 37° C., 2 h
T2 construct: inserting a stop codon after CES1A1 gene to yield the constructs expressing CES1 without V5-His tag; expressed in transfected cells
T2 sequence (P23141 18-567 G143E/Y526T): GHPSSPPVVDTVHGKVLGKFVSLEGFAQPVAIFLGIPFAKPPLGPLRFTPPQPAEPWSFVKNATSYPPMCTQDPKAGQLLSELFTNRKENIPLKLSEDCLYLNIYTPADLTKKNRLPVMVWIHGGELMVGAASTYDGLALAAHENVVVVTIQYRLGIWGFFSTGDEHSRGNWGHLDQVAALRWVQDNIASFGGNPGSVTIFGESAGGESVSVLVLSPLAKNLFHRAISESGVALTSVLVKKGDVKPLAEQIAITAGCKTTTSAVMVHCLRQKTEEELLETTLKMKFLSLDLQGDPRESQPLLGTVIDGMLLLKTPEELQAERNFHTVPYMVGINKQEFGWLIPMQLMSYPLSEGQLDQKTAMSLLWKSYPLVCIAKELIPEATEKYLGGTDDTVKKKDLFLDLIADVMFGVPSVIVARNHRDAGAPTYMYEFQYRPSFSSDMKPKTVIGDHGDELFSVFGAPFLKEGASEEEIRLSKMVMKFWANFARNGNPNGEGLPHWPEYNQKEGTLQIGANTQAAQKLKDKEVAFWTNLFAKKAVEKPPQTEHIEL
Excerpt: as §1, §2, §3, §4

[5] = Pharmacokinetic study of orally administered racemic MPH in normal volunteers; assay type: in vivo, human; details: single oral 0.3 mg/kg racemic MPH, plasma
Method: Analysis of Pharmacokinetic, Hemodynamic, and Statistical Data. Standard pharmacokinetic analyses were applied to the MPH data using WinNonLin software (Pharsight, Mountainview, Calif.) and are described in a previous publication.^10 The AUC, Cmax, and t1/2 were analyzed using the Extreme Studentized Deviate (ESD) single-outlier procedure^12 to determine whether the parameter measurements for the slow metabolizer constituted true statistical outliers. For each parameter, the ESD procedure confirmed the measurement as an outlier at the p<0.01 level. Because this procedure is known to be conservative, the data from the aberrant metabolizer were reassessed using a similar procedure with respect to the normal participants only.

[6] = molecular target: T2, p.Gly143Glu CES1; test: Oseltamivir phosphate hydrolysis by p.Gly143Glu hCES1 S9 (HPLC); assay type: biochemical; details: compared to WT enzyme
[7] = molecular target: T1, p.Asp260fs CES1; test: Oseltamivir phosphate hydrolysis by p.Asp260fs hCES1 S9 (HPLC); assay type: biochemical; details: measured by conversion to OC
[8] = cited from earlier work
[9] = molecular target: T3, WT CES1 (Homo sapiens, UniProt P23141); test: MPH hydrolysis to ritalinic acid by S9 of cells expressing WT CES1 (HPLC); assay type: biochemical; details: S9 0.5 mg/mL, 37° C., 2 hours, mean ± S.D. (n = 3)
T3 construct: inserting a stop codon after CES1A1 gene to yield the constructs expressing CES1 without V5-His tag; expressed in transfected cells
T3 sequence (P23141 18-567): T2 sequence (P23141 18-567 G143E/Y526T) with E126G, T509Y
Excerpt: as §1, §2, §3, §4

[10] = molecular target: T4, hCES1 (Homo sapiens, UniProt P23141); details: in vitro; cited from earlier work
T4 sequence (P23141 18-567): T2 sequence (P23141 18-567 G143E/Y526T) with E126G, T509Y

COC(=O)C(c1ccccc1)C1CCCCN1 (racemic) [MPH, methylphenidate]
Diastolic Blood Pressure, Maximum Value, Mean (SD) ([1]; 19 study peers): 68 (8)
Mean Arterial Pressure, Maximum Value, Mean (SD) ([1]; 19 study peers): 85 (8)
Pulse, Maximum Value, Mean (SD) ([1]; 19 study peers): 74 (11)
Systolic Blood Pressure, Maximum Value, Mean (SD) ([1]; 19 study peers): 120 (10)
Diastolic Blood Pressure, Maximum Value, Outlier ([1]; slow metabolizer): 78
Mean Arterial Pressure, Maximum Value, Outlier ([1]; slow metabolizer): 97
Pulse, Maximum Value, Outlier ([1]; slow metabolizer): 93
Systolic Blood Pressure, Maximum Value, Outlier ([1]; slow metabolizer): 138
stability in reaction buffer [2]: spontaneously hydrolyzed
catalytic activity towards MPH hydrolysis [3]: too low to be determined
catalytic activity towards MPH hydrolysis [4]: too low to be determined
Cmax of slow metabolizer relative to the mean of the other subjects [5]: approximately 7 fold

CCOC(=O)C1=C[C@@H](OC(CC)CC)[C@H](NC(C)=O)[C@@H](N)C1 [OP, oseltamivir phosphate]
enzymatic activity on oseltamivir hydrolysis [6]: Profoundly decreased enzymatic activity
enzymatic activity on oseltamivir hydrolysis [7]: did not result in any detectable hydrolysis
enzymatic activity on oseltamivir hydrolysis ([7]; listed as oseltamivir): No catalytic activity

COC(=O)[C@@H](c1ccccc1)[C@@H]1CCCCN1 [l-MPH, l-threo-(S,S)-methylphenidate]
fraction of the total circulating blood concentrations of MPH ([8]; racemic MPH, enantioselective analytical methods): 1-15%
blood concentration relative to that of d-MPH ([8]; studies that measured both isomers): 1-15%
AUCinf relative to that of d-MPH ([8]; various oral formulations): 1%-15%
Km [9]: 776 ± 162 µM
Vmax [9]: 1701.0 pmole/min/mg protein and 1701.0 ± 196.5 pmole/min/mg protein
catalytic activity towards MPH hydrolysis [3]: failed to show any hydrolytic activity
catalytic activity towards MPH hydrolysis [4]: failed to show any hydrolytic activity
Cmax of slow metabolizer relative to the mean of the other subjects [5]: approximately 100 fold
Cmax ([5]; slow metabolizer): 62 ng/mL
catalytic efficiency of hCES1 relative to d-MPH [10]: up to 6 fold

Source: patent US20110020801A1, “Carboxylesterase-1 Polymorphisms and Methods of Use Therefor” (priority 2007, published 2011)
